Laboratory results published in PMC6591251, “Discovery of potent necroptosis inhibitors targeting RIPK1 kinase activity for the treatment of inflammatory disorder and cancer metastasis” (Cell Death & Disease, 2019).
Read-outs that look alike come from different tables or passages of the source.

What was measured:
[1] = system: mouse embryonic fibroblasts (MEFs); assay: TNF-induced necroptosis (T/S/Z), cell viability by ATP levels; format: cell-based; conditions: Fibroblast, 24 h, MEF, T/S/Z 24 h
[2] = Pharmacokinetic profile in mice; format: in vivo; conditions: ICR, mouse, plasma; for AUC(0-t): read-out: AUC0-24
Protocol: Encouraged by our overall satisfactory in vitro potency and selectivity data for PK68, we decided to assess its in vivo pharmacokinetic profile.
Data represent mean value ± standard deviation. b Plasma pharmacokinetic parameters of PO and IV. c, d C57BL/6 mice (n = 5) were treated with the indicated daily oral gavage dosing of PK68 for successive 14 days. Body weight (c) and hematoxylin-eosin (H&E) staining (d) of mice were analyzed. Control mice received an equal amount of vehicle. Magnification: ×40. Data represent mean value ± standard deviation TEXT PRINTED IN THE PICTURE: (b) no label printed: Tmax (hr): 0.5 (PO (Gavage)); Cmax (ng/mL): 2423 (PO (Gavage)); AUC0-24 (ng/mL*hr): 4821 (PO (Gavage)); AUC0-24 (ng/mL*hr): 1588 (IV (Bolus)); AUCINF (ng/mL*hr): 4897 (PO (Gavage)); AUCINF (ng/mL*hr): 1590 (IV (Bolus)); t1/2 (hr): 1.3 (PO (Gavage)); t1/2 (hr): 1.0 (IV (Bolus)); MRT (hr): 1.8 (PO (Gavage)); MRT (hr): 0.8 (IV (Bolus)); CL (mL/hr/kg): 1258 (IV (Bolus)); CL (mL/min/kg): 21 (IV (Bolus)); Vss (mL/kg): 1009 (IV (Bolus)); Vss (L/kg): 1.0 (IV (Bolus)); F(%): 61 (PO (Gavage)) DOUBTS OF THE COPYIST ABOUT THIS PICTURE: Panel b prints no substance label with the PK table. The name PK68 is printed only in panels c and d, so the label is left empty.
Judging by the PK time curve, the observed plasma levels of PK68 were above its EC50 over a period of 8 h. […] These doses were meant to determine the preliminary toxicity effects of PK68 (Fig. 6c). […] We further performed histology of various tissues from mice that had received 14-day treatment of PK68.

MEK2 = target: T1, MEK2 (Homo sapiens, UniProt P36507); assay: RBC kinase panel; format: biochemical; conditions: ATP 10 μM, Data1, Data2
T1 construct: purchased Reaction Biology Corporation
T1 sequence (P36507 whole entry): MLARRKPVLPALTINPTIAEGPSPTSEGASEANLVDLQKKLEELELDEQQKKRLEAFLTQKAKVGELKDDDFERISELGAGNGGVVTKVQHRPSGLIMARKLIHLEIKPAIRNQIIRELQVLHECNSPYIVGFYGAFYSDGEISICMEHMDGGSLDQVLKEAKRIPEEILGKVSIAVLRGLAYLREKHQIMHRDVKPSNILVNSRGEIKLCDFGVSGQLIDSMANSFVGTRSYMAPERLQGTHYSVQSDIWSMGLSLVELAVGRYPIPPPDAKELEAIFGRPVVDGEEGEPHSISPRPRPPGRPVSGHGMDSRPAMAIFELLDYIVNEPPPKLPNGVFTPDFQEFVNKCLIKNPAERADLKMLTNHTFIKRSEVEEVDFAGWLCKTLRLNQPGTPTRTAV
Protocol: (§1) PK68 was tested at 1 μM in duplicate against a panel of 369 human kinases at Reaction Biology Corporation. Results are viewed in the human kinome phylogenetic tree.
(§2) ^a Compound PK68 was tested at 1 μM in duplicate against 369 kinases using the RBC kinase panel service of Reaction Biology Corporation. All the ATP concentrations used were 10 μM. […] Full protocol details are available at http://www.reactionbiology.com.

PKG2/PRKG2 = target: T2, PKG2/PRKG2 (Homo sapiens, UniProt Q13237); assay: RBC kinase panel; format: biochemical; conditions: ATP 10 μM, Data1, Data2
T2 construct: purchased Reaction Biology Corporation
Protocol: as §1, §2

GRK5 = target: T3, GRK5 (Homo sapiens, UniProt P34947); assay: RBC kinase panel; format: biochemical; conditions: ATP 10 μM, Data1, Data2
T3 construct: purchased Reaction Biology Corporation
Protocol: as §1, §2

EPHA6 = target: T4, EPHA6 (Homo sapiens, UniProt Q9UF33); assay: RBC kinase panel; format: biochemical; conditions: ATP 10 μM, Data1, Data2
T4 construct: purchased Reaction Biology Corporation
T4 sequence (Q9UF33 23-1036): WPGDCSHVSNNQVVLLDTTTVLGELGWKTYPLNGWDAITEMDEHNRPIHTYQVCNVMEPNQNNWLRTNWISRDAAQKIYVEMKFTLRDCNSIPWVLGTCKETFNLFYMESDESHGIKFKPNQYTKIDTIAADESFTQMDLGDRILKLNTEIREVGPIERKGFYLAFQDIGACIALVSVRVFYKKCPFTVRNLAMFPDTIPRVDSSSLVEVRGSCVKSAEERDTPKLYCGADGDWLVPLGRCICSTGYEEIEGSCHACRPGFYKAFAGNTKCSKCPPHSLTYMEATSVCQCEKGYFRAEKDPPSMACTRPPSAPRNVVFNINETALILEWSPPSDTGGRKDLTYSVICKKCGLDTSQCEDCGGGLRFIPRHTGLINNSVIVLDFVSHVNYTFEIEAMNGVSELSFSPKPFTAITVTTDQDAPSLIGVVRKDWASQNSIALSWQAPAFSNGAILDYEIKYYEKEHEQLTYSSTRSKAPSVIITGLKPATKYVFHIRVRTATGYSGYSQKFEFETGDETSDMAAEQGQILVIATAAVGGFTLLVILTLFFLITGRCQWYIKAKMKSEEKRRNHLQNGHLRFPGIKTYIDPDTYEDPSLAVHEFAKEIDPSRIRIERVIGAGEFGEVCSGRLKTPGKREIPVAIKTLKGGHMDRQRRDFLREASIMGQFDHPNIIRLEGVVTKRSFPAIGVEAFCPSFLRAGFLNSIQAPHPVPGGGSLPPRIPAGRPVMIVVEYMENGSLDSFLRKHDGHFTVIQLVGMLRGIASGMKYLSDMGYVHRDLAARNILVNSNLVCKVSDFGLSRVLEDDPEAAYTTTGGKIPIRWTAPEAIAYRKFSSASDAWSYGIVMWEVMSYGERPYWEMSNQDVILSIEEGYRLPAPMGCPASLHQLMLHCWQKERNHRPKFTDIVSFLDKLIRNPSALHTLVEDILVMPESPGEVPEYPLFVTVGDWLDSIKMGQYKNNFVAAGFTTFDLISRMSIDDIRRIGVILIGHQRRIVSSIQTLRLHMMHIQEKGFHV
Protocol: as §1, §2

PKN2/PRK2 = target: T5, PKN2/PRK2 (Homo sapiens, UniProt Q16513); assay: RBC kinase panel; format: biochemical; conditions: ATP 10 μM, Data1, Data2
T5 construct: purchased Reaction Biology Corporation
Protocol: as §1, §2

CDK9/cyclin K = target: T6, CDK9/cyclin K (Homo sapiens, UniProt P50750); assay: RBC kinase panel; format: biochemical; conditions: ATP 10 μM, Data1, Data2
T6 construct: purchased Reaction Biology Corporation
T6 sequence (P50750 whole entry): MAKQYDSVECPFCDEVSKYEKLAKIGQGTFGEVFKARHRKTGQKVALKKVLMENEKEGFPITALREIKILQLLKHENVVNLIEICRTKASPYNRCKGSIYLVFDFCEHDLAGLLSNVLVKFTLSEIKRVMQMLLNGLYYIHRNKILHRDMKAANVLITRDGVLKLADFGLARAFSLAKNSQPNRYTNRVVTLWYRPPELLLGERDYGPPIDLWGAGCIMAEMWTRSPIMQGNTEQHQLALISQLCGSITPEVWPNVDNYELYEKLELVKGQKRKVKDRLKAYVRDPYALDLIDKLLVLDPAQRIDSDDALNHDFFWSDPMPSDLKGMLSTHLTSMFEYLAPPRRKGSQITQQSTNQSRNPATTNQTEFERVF
T6 sequence (O75909 whole entry partner): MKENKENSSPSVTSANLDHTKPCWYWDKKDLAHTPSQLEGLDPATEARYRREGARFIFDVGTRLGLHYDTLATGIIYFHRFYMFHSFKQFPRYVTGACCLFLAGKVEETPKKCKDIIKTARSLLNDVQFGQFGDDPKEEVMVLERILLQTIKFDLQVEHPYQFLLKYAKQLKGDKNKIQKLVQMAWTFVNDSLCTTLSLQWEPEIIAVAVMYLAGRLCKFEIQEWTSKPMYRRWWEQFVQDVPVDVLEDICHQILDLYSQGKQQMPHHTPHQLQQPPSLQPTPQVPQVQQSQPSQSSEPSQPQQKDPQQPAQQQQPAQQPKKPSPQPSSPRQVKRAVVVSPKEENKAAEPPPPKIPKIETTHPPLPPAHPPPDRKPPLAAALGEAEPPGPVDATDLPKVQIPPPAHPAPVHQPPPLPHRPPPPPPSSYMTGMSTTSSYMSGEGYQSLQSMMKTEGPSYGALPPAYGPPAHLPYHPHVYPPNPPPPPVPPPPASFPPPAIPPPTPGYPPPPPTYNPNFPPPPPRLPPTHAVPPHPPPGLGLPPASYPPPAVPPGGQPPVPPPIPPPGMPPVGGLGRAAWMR
Protocol: as §1, §2

VRK1 = target: T7, VRK1 (Homo sapiens, UniProt Q99986); assay: RBC kinase panel; format: biochemical; conditions: ATP 10 μM, Data1, Data2
T7 construct: purchased Reaction Biology Corporation
T7 sequence (Q99986 whole entry): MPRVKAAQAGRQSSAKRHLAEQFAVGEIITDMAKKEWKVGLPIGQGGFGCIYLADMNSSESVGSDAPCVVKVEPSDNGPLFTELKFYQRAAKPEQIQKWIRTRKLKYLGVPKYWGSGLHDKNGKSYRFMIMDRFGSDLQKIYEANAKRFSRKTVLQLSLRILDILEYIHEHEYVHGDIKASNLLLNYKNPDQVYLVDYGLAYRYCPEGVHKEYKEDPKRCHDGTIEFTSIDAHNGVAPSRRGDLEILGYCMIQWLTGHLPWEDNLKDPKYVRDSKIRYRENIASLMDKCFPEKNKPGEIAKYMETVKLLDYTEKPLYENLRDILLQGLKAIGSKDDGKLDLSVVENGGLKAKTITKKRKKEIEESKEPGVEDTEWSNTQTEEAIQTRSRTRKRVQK
Protocol: as §1, §2

PKCzeta = target: T8, PKCzeta (Homo sapiens, UniProt Q05513); assay: RBC kinase panel; format: biochemical; conditions: ATP 10 μM, Data1, Data2
T8 construct: purchased Reaction Biology Corporation
T8 sequence (Q05513 whole entry): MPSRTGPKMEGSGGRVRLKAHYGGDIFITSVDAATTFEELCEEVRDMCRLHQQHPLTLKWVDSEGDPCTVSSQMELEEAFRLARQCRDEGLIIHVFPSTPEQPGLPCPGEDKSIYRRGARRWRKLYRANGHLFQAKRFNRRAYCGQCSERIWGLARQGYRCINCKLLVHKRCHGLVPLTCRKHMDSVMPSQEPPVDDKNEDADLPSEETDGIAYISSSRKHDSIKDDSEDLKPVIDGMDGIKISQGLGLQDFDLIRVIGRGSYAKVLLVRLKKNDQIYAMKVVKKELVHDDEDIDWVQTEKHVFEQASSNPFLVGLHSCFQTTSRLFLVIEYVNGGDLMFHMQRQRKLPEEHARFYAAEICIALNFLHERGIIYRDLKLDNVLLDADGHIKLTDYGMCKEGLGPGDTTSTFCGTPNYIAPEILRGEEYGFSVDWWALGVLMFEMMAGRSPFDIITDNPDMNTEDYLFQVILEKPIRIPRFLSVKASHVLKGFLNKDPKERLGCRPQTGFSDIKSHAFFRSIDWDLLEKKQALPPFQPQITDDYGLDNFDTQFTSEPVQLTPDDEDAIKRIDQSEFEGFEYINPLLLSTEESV
Protocol: as §1, §2

MST4 = target: T9, MST4 (Homo sapiens, UniProt Q9P289); assay: RBC kinase panel; format: biochemical; conditions: ATP 10 μM, Data1, Data2
T9 construct: purchased Reaction Biology Corporation
Protocol: as §1, §2

DYRK3 = target: T10, DYRK3 (Homo sapiens, UniProt O43781); assay: RBC kinase panel; format: biochemical; conditions: ATP 10 μM, Data1, Data2
T10 construct: purchased Reaction Biology Corporation
T10 sequence (O43781 whole entry): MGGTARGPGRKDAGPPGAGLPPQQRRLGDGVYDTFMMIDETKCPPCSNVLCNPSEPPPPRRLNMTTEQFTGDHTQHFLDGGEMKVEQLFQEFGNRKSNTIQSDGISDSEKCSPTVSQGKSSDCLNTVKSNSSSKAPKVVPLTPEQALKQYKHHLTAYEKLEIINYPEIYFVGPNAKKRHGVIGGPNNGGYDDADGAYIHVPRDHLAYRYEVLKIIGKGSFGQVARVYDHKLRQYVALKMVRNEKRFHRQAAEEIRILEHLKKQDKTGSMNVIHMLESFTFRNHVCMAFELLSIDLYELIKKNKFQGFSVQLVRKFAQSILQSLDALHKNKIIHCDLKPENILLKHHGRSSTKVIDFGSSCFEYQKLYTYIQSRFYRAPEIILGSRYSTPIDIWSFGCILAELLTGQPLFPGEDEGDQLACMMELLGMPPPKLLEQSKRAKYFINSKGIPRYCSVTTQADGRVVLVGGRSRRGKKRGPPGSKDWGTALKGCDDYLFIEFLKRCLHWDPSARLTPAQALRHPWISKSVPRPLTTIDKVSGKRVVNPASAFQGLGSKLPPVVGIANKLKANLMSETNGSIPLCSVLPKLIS
Protocol: as §1, §2

ERK5/MAPK7 = target: T11, ERK5/MAPK7 (Homo sapiens, UniProt Q13164); assay: RBC kinase panel; format: biochemical; conditions: ATP 10 μM, Data1, Data2
T11 construct: purchased Reaction Biology Corporation
Protocol: as §1, §2

GRK4 = target: T12, GRK4 (Homo sapiens, UniProt P32298); assay: RBC kinase panel; format: biochemical; conditions: ATP 10 μM, Data1, Data2
T12 construct: purchased Reaction Biology Corporation
Protocol: as §1, §2

IKKe/IKBKE = target: T13, IKKe/IKBKE (Homo sapiens, UniProt Q14164); assay: RBC kinase panel; format: biochemical; conditions: ATP 10 μM, Data1, Data2
T13 construct: purchased Reaction Biology Corporation
Protocol: as §1, §2

LIMK1 = target: T14, LIMK1 (Homo sapiens, UniProt P53667); assay: RBC kinase panel; format: biochemical; conditions: ATP 10 μM, Data1, Data2
T14 construct: purchased Reaction Biology Corporation
Protocol: as §1, §2

RSK3 = target: T15, RSK3 (Homo sapiens, UniProt Q15349); assay: RBC kinase panel; format: biochemical; conditions: ATP 10 μM, Data1, Data2
T15 construct: purchased Reaction Biology Corporation
T15 sequence (Q15349 whole entry): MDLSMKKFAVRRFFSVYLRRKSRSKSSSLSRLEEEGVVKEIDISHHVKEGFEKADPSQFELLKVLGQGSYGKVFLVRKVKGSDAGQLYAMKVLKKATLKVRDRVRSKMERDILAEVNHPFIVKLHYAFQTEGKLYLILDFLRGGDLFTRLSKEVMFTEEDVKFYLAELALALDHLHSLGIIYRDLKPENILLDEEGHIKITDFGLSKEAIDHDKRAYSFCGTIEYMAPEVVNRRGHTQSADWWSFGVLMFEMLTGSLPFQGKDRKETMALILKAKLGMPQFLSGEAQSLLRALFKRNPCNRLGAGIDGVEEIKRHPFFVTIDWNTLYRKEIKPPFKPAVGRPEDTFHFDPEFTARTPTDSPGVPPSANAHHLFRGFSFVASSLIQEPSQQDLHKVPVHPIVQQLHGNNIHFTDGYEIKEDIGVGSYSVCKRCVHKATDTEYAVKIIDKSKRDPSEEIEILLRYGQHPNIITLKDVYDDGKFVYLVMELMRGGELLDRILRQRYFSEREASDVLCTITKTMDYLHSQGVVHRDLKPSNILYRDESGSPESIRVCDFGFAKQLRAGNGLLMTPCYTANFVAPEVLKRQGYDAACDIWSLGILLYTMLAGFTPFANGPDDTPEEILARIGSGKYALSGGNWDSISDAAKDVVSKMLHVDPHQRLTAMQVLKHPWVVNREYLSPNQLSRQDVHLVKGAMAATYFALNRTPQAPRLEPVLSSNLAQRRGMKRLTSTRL
Protocol: as §1, §2

ROCK2 = target: T16, ROCK2 (Homo sapiens, UniProt O75116); assay: RBC kinase panel; format: biochemical; conditions: ATP 10 μM, Data1, Data2
T16 construct: purchased Reaction Biology Corporation
Protocol: as §1, §2

NEK5 = target: T17, NEK5 (Homo sapiens, UniProt Q6P3R8); assay: RBC kinase panel; format: biochemical; conditions: ATP 10 μM, Data1, Data2
T17 construct: purchased Reaction Biology Corporation
Protocol: as §1, §2

EPHB1 = target: T18, EPHB1 (Homo sapiens, UniProt P54762); assay: RBC kinase panel; format: biochemical; conditions: ATP 10 μM, Data1, Data2
T18 construct: purchased Reaction Biology Corporation
Protocol: as §1, §2

PIM2 = target: T19, PIM2 (Homo sapiens, UniProt Q9P1W9); assay: RBC kinase panel; format: biochemical; conditions: ATP 10 μM, Data1, Data2
T19 construct: purchased Reaction Biology Corporation
T19 sequence (Q9P1W9 whole entry): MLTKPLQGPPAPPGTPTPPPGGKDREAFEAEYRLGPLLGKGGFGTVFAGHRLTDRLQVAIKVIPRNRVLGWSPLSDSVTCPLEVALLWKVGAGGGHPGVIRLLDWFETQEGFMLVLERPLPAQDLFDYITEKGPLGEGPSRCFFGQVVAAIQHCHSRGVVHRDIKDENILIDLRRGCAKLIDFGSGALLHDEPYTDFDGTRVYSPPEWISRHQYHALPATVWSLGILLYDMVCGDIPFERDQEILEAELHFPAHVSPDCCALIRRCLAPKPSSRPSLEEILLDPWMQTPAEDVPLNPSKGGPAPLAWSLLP
Protocol: as §1, §2

CC(=O)Nc1nc2ccc(-c3cnc(Cl)c(NC(=O)Cc4ccccc4)c3)cc2s1 [PK6, N-(5-(2-acetamidobenzo[d]thiazol-6-yl)-2-chloropyridin-3-yl)-2-phenylacetamide]
EC50 [1]: ~950 nM

CC(=O)Nc1nc2ccc(-c3cnc(C)c(NC(=O)OC4CCCCC4)c3)cc2s1 [PK68, cyclohexyl (5-(2-acetamidobenzo[d]thiazol-6-yl)-2-methylpyridin-3-yl)carbamate]
clearance ([2]; iv, 2 mg/kg, IV (Bolus)): 21 mL/min/kg
Vd ([2]; iv, 2 mg/kg, IV (Bolus), read-out: Vss): 1 L/kg
AUC(0-inf) ([2]; 2 mg/kg, IV (Bolus)): 1590 ng·h/mL
MRT ([2]; 2 mg/kg, IV (Bolus)): 0.8 h
half-life ([2]; 2 mg/kg, IV (Bolus)): 1 h
AUC(0-t) ([2]; 2 mg/kg, IV (Bolus)): 1590 ng·h/mL
AUC(0-inf) ([2]; 10 mg/kg, PO (Gavage)): 4900 ng·h/mL
MRT ([2]; 10 mg/kg, PO (Gavage)): 1.8 h
half-life ([2]; 10 mg/kg, PO (Gavage)): 1.3 h
AUC(0-t) ([2]; 10 mg/kg, PO (Gavage)): 4820 ng·h/mL
bioavailability ([2]; 10 mg/kg, PO (Gavage), read-out: F(%) oral bioavailability): 61%
Cmax ([2]; po, orally 10 mg/kg, read-out: plasma concentration translated from Cmax): ~4 µM
Tmax ([2]; PO (Gavage), 10 mg/kg): 0.5 h
Cmax ([2]; PO (Gavage), 10 mg/kg, read-out: Cmax): 2420 ng/mL
Activity% (MEK2; 1 μM): 97.14%
activity at 1 µM (MEK2): 97.2%
Activity% (PKG2/PRKG2; 1 μM): 106.03%
activity at 1 µM (PKG2/PRKG2): 108%
Activity% (GRK5; 1 μM): 103.56%
activity at 1 µM (GRK5): 104%
Activity% (EPHA6; 1 μM): 97.58%
activity at 1 µM (EPHA6): 98.1%
Activity% (PKN2/PRK2; 1 μM): 62.44%
activity at 1 µM (PKN2/PRK2): 62.6%
Activity% (CDK9/cyclin K; 1 μM): 104.96%
activity at 1 µM (CDK9/cyclin K): 106%
Activity% (VRK1; 1 μM): 104.78%
activity at 1 µM (VRK1): 105%
Activity% (PKCzeta; 1 μM): 102.04%
activity at 1 µM (PKCzeta): 103%
Activity% (MST4; 1 μM): 101.18%
activity at 1 µM (MST4): 102%
Activity% (DYRK3; 1 μM): 81.73%
activity at 1 µM (DYRK3): 83%
Activity% (ERK5/MAPK7; 1 μM): 98.25%
activity at 1 µM (ERK5/MAPK7): 99.3%
Activity% (GRK4; 1 μM): 103.31%
activity at 1 µM (GRK4): 107%
Activity% (IKKe/IKBKE; 1 μM): 92.74%
activity at 1 µM (IKKe/IKBKE): 98.2%
Activity% (LIMK1; 1 μM): 63.37%
activity at 1 µM (LIMK1): 63.4%
Activity% (RSK3; 1 μM): 96.49%
activity at 1 µM (RSK3): 97.6%
Activity% (ROCK2; 1 μM): 95.49%
activity at 1 µM (ROCK2): 95.5%
Activity% (NEK5; 1 μM): 95.10%
activity at 1 µM (NEK5): 95.5%
Activity% (EPHB1; 1 μM): 95.01%
activity at 1 µM (EPHB1): 95.5%
Activity% (PIM2; 1 μM): 111.50%
activity at 1 µM (PIM2): 114%
